Data reported in patent US20110190127A1, “NOVEL HERBICIDES” (SYNGENTA CROP PROTECTION, INC., priority 2008, published 2011).

How the values were obtained:
Format in all cases: in vivo
Avena fatua (AVEFA) [1] = assay: Pre-emergence herbicidal activity, glasshouse pot test; details: Rate 500 g/ha; sprayed after one day cultivation, evaluated 20 days later; 100=total damage to plant, 0=no damage to plant
Method: (§1) Monocotyledonous and dicotyledonous test plants were sown in standard soil in pots. After cultivation for one day (pre-emergence) or after 10 days cultivation (post-emergence) under controlled conditions in a glasshouse, the plants were sprayed with an aqueous spray solution derived from the formulation of the technical active ingredient in 0.6 ml acetone and 45 ml formulation solution containing 10.6% Emulsogen EL (Registry number 61791-12-6), 42.2% N-methyl pyrrolidone, 42.2% dipropylene glycol monomethyl ether (Registry number 34590-94-8) and 0.2% X-77 (Registry number 11097-66-8). The test plants were then grown in a greenhouse under optimum conditions until, 15 days later for post-emergence and 20 days for pre-emergence, the test was evaluated (100=total damage to plant; 0=no damage to plant). Test Plants: Alopecurus myosuroides (ALOMY), Avena fatua (AVEFA), Lolium perenne (LOLPE), Setaria faberi (SETFA), Digitaria sanguinalis (DIGSA), Echinochloa crus-galli (ECHCG)

[2] = test system: Alopecurus myosuroides (ALOMY); assay: as above; details: Rate 500 g/ha; sprayed after one day cultivation, evaluated 20 days later; 100=total damage to plant, 0=no damage to plant
Method: as §1

Setaria faberi (SETFA) [3] = assay: as above; details: Rate 500 g/ha; sprayed after one day cultivation, evaluated 20 days later; 100=total damage to plant, 0=no damage to plant
Method: as §1

[4] = test system: Digitaria sanguinalis (DIGSA); assay: as above; details: Rate 500 g/ha; sprayed after one day cultivation, evaluated 20 days later; 100=total damage to plant, 0=no damage to plant
Method: as §1

[5] = test system: Echinochloa crus-galli (ECHCG); assay: as above; details: Rate 500 g/ha; sprayed after one day cultivation, evaluated 20 days later; 100=total damage to plant, 0=no damage to plant
Method: as §1

Lolium perenne (LOLPE) [6] = assay: as above; details: Rate 500 g/ha; sprayed after one day cultivation, evaluated 20 days later; 100=total damage to plant, 0=no damage to plant
Method: as §1

Avena fatua (AVEFA) [7] = assay: Post-emergence herbicidal activity, glasshouse pot test; details: Rate 500 g/ha; sprayed after 10 days cultivation, evaluated 15 days later; 100=total damage to plant, 0=no damage to plant
Method: as §1

[8] = test system: Alopecurus myosuroides (ALOMY); assay: as above; details: Rate 500 g/ha; sprayed after 10 days cultivation, evaluated 15 days later; 100=total damage to plant, 0=no damage to plant
Method: as §1

Setaria faberi (SETFA) [9] = assay: as above; details: Rate 500 g/ha; sprayed after 10 days cultivation, evaluated 15 days later; 100=total damage to plant, 0=no damage to plant
Method: as §1

[10] = test system: Digitaria sanguinalis (DIGSA); assay: as above; details: Rate 500 g/ha; sprayed after 10 days cultivation, evaluated 15 days later; 100=total damage to plant, 0=no damage to plant
Method: as §1

[11] = test system: Echinochloa crus-galli (ECHCG); assay: as above; details: Rate 500 g/ha; sprayed after 10 days cultivation, evaluated 15 days later; 100=total damage to plant, 0=no damage to plant
Method: as §1

Lolium perenne (LOLPE) [12] = assay: as above; details: Rate 500 g/ha; sprayed after 10 days cultivation, evaluated 15 days later; 100=total damage to plant, 0=no damage to plant
Method: as §1

Row | Structure (SMILES) | Pre-Emergence Activity AVEFA (Avena fatua (AVEFA) [1]) | Pre-Emergence Activity ALOMY [2] | Pre-Emergence Activity SETFA (Setaria faberi (SETFA) [3]) | Pre-Emergence Activity DIGSA [4] | Pre-Emergence Activity ECHCG [5] | Pre-Emergence Activity LOLPE (Lolium perenne (LOLPE) [6]) | Post-Emergence Activity AVEFA (Avena fatua (AVEFA) [7]) | Post-Emergence Activity ALOMY [8] | Post-Emergence Activity SETFA (Setaria faberi (SETFA) [9]) | Post-Emergence Activity DIGSA [10] | Post-Emergence Activity ECHCG [11] | Post-Emergence Activity LOLPE (Lolium perenne (LOLPE) [12])
1 | CCc1ccc(-c2ccc(Cl)cc2Cl)cc1C1=C(Cl)C(C)(C)OC(C)(C)C1=O [Compound A1] | 0 | 10 | 0 | 70 | 0 | 20 | 50 | 40 | 60 | 100 | 100 | 60
2 | CCc1ccc(-c2ccc(Cl)cc2Cl)cc1C1=C(SC)C(C)(C)OC(C)(C)C1=O [Compound A2] | 0 | 0 | 10 | 20 | 20 | 20 | 0 | 0 | 10 | 0 | 20 | 0
